Measured values from paper PMC4689404, “2-Benzazolyl-4-Piperazin-1-Ylsulfonylbenzenecarbohydroxamic Acids as Novel Selective Histone Deacetylase-6 Inhibitors with Antiproliferative Activity” (PLoS ONE, 2015).

Columns and labels:
[1] = tested on: 786-0; assay: NCI 60 screen, five dose; assay type: cell-based; settings: Homo sapiens, Renal Cancer, GI50 = molar concentration, read-out: Log10 GI50 (converted)
[2] = tested on: HCT-116; assay: NCI 60 screen, five dose; assay type: cell-based; settings: Homo sapiens, Colon Cancer, GI50 = molar concentration, read-out: Log10 GI50 (converted)
[3] = tested on: SNB-75; assay: NCI 60 screen, five dose; assay type: cell-based; settings: Homo sapiens, CNS Cancer, GI50 = molar concentration, read-out: Log10 GI50 (converted)
[4] = tested on: UO-31; assay: NCI 60 screen, five dose; assay type: cell-based; settings: Homo sapiens, Renal Cancer, GI50 = molar concentration, read-out: Log10 GI50 (converted)
[5] = tested on: LOX IMVI; assay: NCI 60 screen, five dose; assay type: cell-based; settings: Homo sapiens, Melanoma, GI50 = molar concentration, read-out: Log10 GI50 (converted)
[6] = tested on: SK-MEL-5; assay: NCI 60 screen, five dose; assay type: cell-based; settings: Homo sapiens, Melanoma, GI50 = molar concentration, read-out: Log10 GI50 (converted)
[7] = tested on: HOP-62; assay: NCI 60 screen, five dose; assay type: cell-based; settings: Homo sapiens, Non-Small Cell Lung Cancer, GI50 = molar concentration, read-out: Log10 GI50 (converted)
[8] = tested on: Ovarian cancer cell lines; assay: NCI 60 screen, five dose; assay type: cell-based, human; settings: for GI50: Homo sapiens; for no. cell lines used for the assay/no inhibited by compound: figures in parenthesis
[9] = tested on: A498; assay: NCI 60 screen, five dose; assay type: cell-based; settings: Homo sapiens, Renal Cancer, GI50 = molar concentration, read-out: Log10 GI50 (converted)
[10] = tested on: SF-539; assay: NCI 60 screen, five dose; assay type: cell-based; settings: Homo sapiens, CNS Cancer, GI50 = molar concentration, read-out: Log10 GI50 (converted)
[11] = tested on: SK-MEL-2; assay: NCI 60 screen, five dose; assay type: cell-based; settings: Homo sapiens, Melanoma, GI50 = molar concentration, read-out: Log10 GI50 (converted)
[12] = tested on: Colon cancer cell lines; assay: NCI 60 screen, five dose; assay type: cell-based, human; settings: for GI50: Homo sapiens; for no. cell lines used for the assay/no inhibited by compound: figures in parenthesis
[13] = tested on: MDA-MB-231/ATCC; assay: NCI 60 screen, five dose; assay type: cell-based; settings: Homo sapiens, Breast Cancer, GI50 = molar concentration, read-out: Log10 GI50 (converted)
[14] = tested on: UACC-62; assay: NCI 60 screen, five dose; assay type: cell-based; settings: Homo sapiens, Melanoma, GI50 = molar concentration, read-out: Log10 GI50 (converted)
[15] = tested on: SF-268; assay: NCI 60 screen, five dose; assay type: cell-based; settings: Homo sapiens, CNS Cancer, GI50 = molar concentration, read-out: Log10 GI50 (converted)
[16] = tested on: M14; assay: NCI 60 screen, five dose; assay type: cell-based; settings: Homo sapiens, Melanoma, GI50 = molar concentration, read-out: Log10 GI50 (converted)
[17] = tested on: U251; assay: NCI 60 screen, five dose; assay type: cell-based; settings: Homo sapiens, U-251, CNS Cancer, GI50 = molar concentration, read-out: Log10 GI50 (converted)
[18] = tested on: PC-3; assay: NCI 60 screen, five dose; assay type: cell-based; settings: Homo sapiens, Prostate Cancer, GI50 = molar concentration, read-out: Log10 GI50 (converted)
[19] = tested on: NCI-H226; assay: NCI 60 screen, five dose; assay type: cell-based; settings: Homo sapiens, Non-Small Cell Lung Cancer, GI50 = molar concentration, read-out: Log10 GI50 (converted)
[20] = tested on: Renal Cancer cell lines; assay: NCI 60 screen, five dose; assay type: cell-based, human; settings: for GI50: Homo sapiens; for no. cell lines used for the assay/no inhibited by compound: figures in parenthesis
[21] = tested on: NCI/ADR-RES; assay: NCI 60 screen, five dose; assay type: cell-based; settings: Homo sapiens, Ovarian Cancer, GI50 = molar concentration, read-out: Log10 GI50 (converted)
[22] = tested on: CAKI-1; assay: NCI 60 screen, five dose; assay type: cell-based; settings: Homo sapiens, Renal Cancer, GI50 = molar concentration, read-out: Log10 GI50 (converted)
[23] = tested on: SW-620; assay: NCI 60 screen, five dose; assay type: cell-based; settings: Homo sapiens, Colon Cancer, GI50 = molar concentration, read-out: Log10 GI50 (converted)
[24] = tested on: Leukemia cell lines; assay: NCI 60 screen, five dose; assay type: cell-based, human; settings: for GI50: Homo sapiens; for no. cell lines used for the assay/no inhibited by compound: figures in parenthesis
[25] = tested on: A549/ATCC; assay: NCI 60 screen, five dose; assay type: cell-based; settings: Homo sapiens, Non-Small Cell Lung Cancer, GI50 = molar concentration, read-out: Log10 GI50 (converted)
[26] = tested on: NCI-H23; assay: NCI 60 screen, five dose; assay type: cell-based; settings: Homo sapiens, Non-Small Cell Lung Cancer, GI50 = molar concentration, read-out: Log10 GI50 (converted)
[27] = tested on: UACC-257; assay: NCI 60 screen, five dose; assay type: cell-based; settings: Homo sapiens, Melanoma, GI50 = molar concentration, read-out: Log10 GI50 (converted)
[28] = tested on: Breast cancer cell lines; assay: NCI 60 screen, five dose; assay type: cell-based, human; settings: for GI50: Homo sapiens; for no. cell lines used for the assay/no inhibited by compound: figures in parenthesis
[29] = tested on: SNB-19; assay: NCI 60 screen, five dose; assay type: cell-based; settings: Homo sapiens, CNS Cancer, GI50 = molar concentration, read-out: Log10 GI50 (converted)
[30] = tested on: Non-Small Cell Lung cancer cell lines; assay: NCI 60 screen, five dose; assay type: cell-based, human; settings: NSCL cancer; for GI50: Homo sapiens; for no. cell lines used for the assay/no inhibited by compound: figures in parenthesis
[31] = tested on: HCC4017 lung cancer cells; assay: cell cycle analysis (PI, FACS); assay type: cell-based, human; settings: for effect on cell cycle distribution: HCC4017, FACs analysis; for subG0 population: HCC4017, even after 64h
Description: For cell cycle analysis, cells were washed with PBS, fixed in 70% ethanol for 2 h, washed with PBS and resuspended in staining solution (0.1% Triton X-100, 0.2 mg/ml DNAse-free RNAse A and […]) and incubated at 37C for 15 min. Histograms were acquired on a BD FACSCalibur flow cytometer at UT Southwestern’s core facility. Apoptosis was measured using a FITC Annexin V Apoptosis Detection Kit I (BD Pharmingen) according to manufacturer’s protocol after treating cells with compounds as indicated in Figure legends.

[32] = tested on: OVCAR-8; assay: NCI 60 screen, five dose; assay type: cell-based; settings: Homo sapiens, Ovarian Cancer, GI50 = molar concentration, read-out: Log10 GI50 (converted)
[33] = tested on: 60 human tumor cell lines; assay: NCI 60 human tumor cell line screen; assay type: cell-based; settings: for GI50: Homo sapiens, 60 cell, read-out: MID (average GI50 across the 60 cell lines); for average growth inhibition: single dose of 10 μm, 60 cell line panel
Source text: To evaluate if the antiproliferative activity of the novel hydroxamic acid derived compounds was general across cancer types, selected compounds were submitted for testing in the tissue-specific panel of human tumor cell lines at the National Cancer Institute, Bethesda, USA. This screen utilizes 60 human tumor cell lines, representing leukemia, melanoma and cancers of the lung, colon, brain, ovary, kidney, prostate and breast. This cell line panel offers the advantage of having available microarray gene expression data across the 60 cell lines which can be used to determine the uniqueness of a new lead for which the molecular target(s) might not be known. The antitumor activity is presented for each cell line by three parameters, namely log10 GI50 value (GI50 = molar concentration of the compound that inhibits 50% net cell growth), log10 TG value (TGI = molar concentration of the compound leading to total inhibition of net cell growth), and log10 LC50 value (LC50 = molar concentration of the compound leading to 50% net cell death) accompanied by MID which refers to the average inhibitory value across the 60 cell lines.
In this assay, compounds 9c (NSC 747073) and 9d (NSC 747072) inhibited the proliferation of subsets of leukemia, colon, CNS, melanoma, and prostrate cancer cells to a higher extent than cells from other cancers (Fig 6A and 6B).

[34] = tested on: ACHN; assay: NCI 60 screen, five dose; assay type: cell-based; settings: Homo sapiens, Renal Cancer, GI50 = molar concentration, read-out: Log10 GI50 (converted)

Compound: O=C(NO)c1ccc(S(=O)(=O)N2CCN(c3nc4ccccc4o3)CC2)cc1 [Compound 9c, 4-(4-Benzoxazol-2-yl-piperazin-1-sulfonyl)-N -hydroxy-benzamid]
- GI50 [1]: 23.4 µM
- GI50 [2]: 4.07 µM
- GI50 [3]: 4.37 µM
- GI50 [4]: 10.7 µM
- GI50 [5]: 10.7 µM
- GI50 [6]: 5.62 µM
- GI50 [7]: 12 µM
- GI50 [8]: 7.66 µM
- no. cell lines used for the assay/no inhibited by compound [8]: 2/5
- GI50 [9]: 2.82 µM
- GI50 [10]: 3.72 µM
- GI50 [11]: 16.2 µM
- GI50 [12]: 6.05 µM
- no. cell lines used for the assay/no inhibited by compound [12]: 4/6
- GI50 [13]: 13.2 µM
- GI50 [14]: 4.27 µM
- GI50 [15]: 12 µM
- GI50 [16]: 5.89 µM
- GI50 [17]: 6.46 µM
- GI50 [18]: 3.24 µM
- GI50 [19]: 20.9 µM
- GI50 [20]: 8.24 µM
- no. cell lines used for the assay/no inhibited by compound [20]: 3/8
- GI50 [21]: 21.9 µM
- GI50 [22]: 3.39 µM
- GI50 [23]: 4.37 µM
- GI50 [24]: 2.24 µM
- no. cell lines used for the assay/no inhibited by compound [24]: 4/4
- GI50 [25]: 13.5 µM
- GI50 [26]: 3.72 µM
- GI50 [27]: 6.46 µM
- GI50 [28]: 8.71 µM
- no. cell lines used for the assay/no inhibited by compound [28]: 2/7
- GI50 [29]: 10 µM
- GI50 [30]: 9.51 µM
- no. cell lines used for the assay/no inhibited by compound [30]: 3/9
- effect on cell cycle distribution [31]: affect cell cycle distribution after just 18h of treatment
- subG0 population [31]: no subG0 population was observed
- GI50 [32]: 3.24 µM
- GI50 ([33]; five dose assay): 6.61 µM
- average growth inhibition [33]: 50%
- GI50 [34]: 21.4 µM

Compound: O=C(NO)c1ccc(S(=O)(=O)N2CCN(c3nc4ccccc4s3)CC2)cc1 [Compound 9d, 4-(4-Benzothiazol-2-yl-piperazin-1-sulfonyl)-N -hydroxy-benzamid]
- GI50 [1]: 9.12 µM
- GI50 [2]: 1.7 µM
- GI50 [3]: 1.74 µM
- GI50 [4]: 4.37 µM
- GI50 [5]: 2.51 µM
- GI50 [6]: 3.98 µM
- GI50 [7]: 3.8 µM
- GI50 [8]: 4.01 µM
- no. cell lines used for the assay/no inhibited by compound [8]: 3/3
- GI50 [9]: 1.82 µM
- GI50 [10]: 2.34 µM
- GI50 [11]: 6.31 µM
- GI50 [12]: 2.3 µM
- no. cell lines used for the assay/no inhibited by compound [12]: 6/7
- GI50 [13]: 5.01 µM
- GI50 [14]: 1.7 µM
- GI50 [15]: 3.98 µM
- GI50 [16]: 1.62 µM
- GI50 [17]: 2.75 µM
- GI50 [18]: 2.04 µM
- GI50 [19]: 10 µM
- GI50 [20]: 3.94 µM
- no. cell lines used for the assay/no inhibited by compound [20]: 3/8
- GI50 [21]: 6.61 µM
- GI50 [22]: 2.34 µM
- GI50 [23]: 1.66 µM
- GI50 [24]: 1.77 µM
- no. cell lines used for the assay/no inhibited by compound [24]: 5/5
- GI50 [25]: 3.63 µM
- GI50 [26]: 1.55 µM
- GI50 [27]: 3.55 µM
- GI50 [28]: 3.88 µM
- no. cell lines used for the assay/no inhibited by compound [28]: 4/7
- GI50 [29]: 5.37 µM
- GI50 [30]: 3.77 µM
- no. cell lines used for the assay/no inhibited by compound [30]: 4/9
- GI50 [32]: 1.7 µM
- GI50 ([33]; five dose assay): 3.16 µM
- more potent overall by a factor, compared to 9c ([33]; MID, five dose assay): 2
- average growth inhibition [33]: 62%
- GI50 [34]: 4.57 µM

Compound: Cn1c(N2CCN(S(=O)(=O)c3ccc(C(=O)NO)cc3)CC2)nc2ccccc21 [Compound 9b, 4-[4-(1-methylbenzimidazol-2-yl)piperazin-1-yl]sulfonylbenzenecarbohydroxamic acid]
- effect on cell cycle distribution [31]: affect cell cycle distribution after just 18h of treatment
- subG0 population [31]: no subG0 population was observed
